From patent US20090215778A1, “Alpha-substituted Arylmethyl Piperazine Pyrazolo [1,5-alpha]Pyrimidine Amide Derivatives” (priority 2007, published 2009) come the findings set out here.

One test concerns HIV-1, NL4-3 strain. The test can be described thus: Virus infection assay (virus entry and single-cycle infection). The format is cell-based. The note with it: Human immunodeficiency virus 1, NL43, TZM-b1, read-out: Nl4. The method, boiled down: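 TZM-b1 cells (CD4, CXCR4, CCR5; LTR-driven lacZ/luciferase reporters) were infected with HIV-1 NL4-3 (MOI 0.01) with 80 μg/mL DEAE-dextran in the presence of test compound, 4 h at 37 °C before adding complete medium. Infection was quantified one day post-infection as chemiluminescent β-galactosidase signal.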

In test [1] the target is T1, HIV Env six-helix bundle (6HB) structure (Human immunodeficiency virus type 1 group M subtype B, UniProt P04579).
T1 construct: H9 cells chronically infected with HIV-1 (H9/HIV-1RF); endogenous in cells; host or cells: H9 cells chronically infected with HIV-1 strain RF (Env is made from the virus in the infected cells, not by transfection)
The test can be described thus: Six-helix bundle (6HB) assay. In kind it is cell-based, HIV-1 (strain RF). The essentials: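 Chronically HIV-1 RF-infected H9 cells (12-40 days post-infection), 2.5×10^5 per well, were preincubated with compound for 30 min at 37 °C. sCD4 at 1 μg/mL was added for 1 h to trigger Env changes. 6HB-specific rabbit serum (1 h, 37 °C) was then added, followed by PE anti-rabbit (45 min, 4 °C), with flow cytometric fluorescence read-out.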

The structures appear in SMILES notation. Where only a bound is given, the exact number is not on record here.

T1 sequence (P04579 32-519): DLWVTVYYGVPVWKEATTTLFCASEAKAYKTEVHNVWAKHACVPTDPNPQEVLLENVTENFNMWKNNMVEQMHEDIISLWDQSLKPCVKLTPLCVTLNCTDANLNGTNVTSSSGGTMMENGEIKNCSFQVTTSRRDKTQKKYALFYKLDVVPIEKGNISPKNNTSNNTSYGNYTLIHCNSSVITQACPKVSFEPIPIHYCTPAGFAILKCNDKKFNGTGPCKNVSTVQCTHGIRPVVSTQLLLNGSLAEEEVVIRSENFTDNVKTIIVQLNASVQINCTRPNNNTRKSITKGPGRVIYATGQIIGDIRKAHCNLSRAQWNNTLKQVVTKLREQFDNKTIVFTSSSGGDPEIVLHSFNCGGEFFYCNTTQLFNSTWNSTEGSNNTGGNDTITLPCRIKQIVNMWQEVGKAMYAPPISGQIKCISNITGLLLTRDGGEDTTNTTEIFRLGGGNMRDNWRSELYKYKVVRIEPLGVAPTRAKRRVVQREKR
T1 sequence (P04579 520-865): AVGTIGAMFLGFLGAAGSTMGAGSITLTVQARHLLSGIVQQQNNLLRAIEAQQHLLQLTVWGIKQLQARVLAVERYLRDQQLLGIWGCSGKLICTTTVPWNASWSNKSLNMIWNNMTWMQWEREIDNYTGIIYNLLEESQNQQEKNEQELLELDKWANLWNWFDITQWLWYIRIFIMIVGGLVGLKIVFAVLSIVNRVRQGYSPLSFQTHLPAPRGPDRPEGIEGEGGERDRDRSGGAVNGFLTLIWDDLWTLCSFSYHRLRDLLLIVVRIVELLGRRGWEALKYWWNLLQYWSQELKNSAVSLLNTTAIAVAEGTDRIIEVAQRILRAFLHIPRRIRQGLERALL

For `COc1ccc(-c2nc3c(C(=O)N4CCN(C(CO)c5cccc(Cl)c5)C[C@H]4C)cnn3c(C(F)(F)F)c2C)cc1` (stereo partly drawn) [methanone, [(2R)-4-[1-(3-chlorophenyl)-2-hydroxyethyl]-2-methyl-1-piperazinyl][5-(4-methoxyphenyl)-6-methyl-7-(trifluoromethyl)pyrazolo[1,5-α]pyrimidin-3-yl]-], the IC50 in the test on HIV-1, NL4-3 strain was less than 1 µM; in test [1] it was less than 1 µM.

Turning to `COc1ccc(-c2nc3c(C(=O)N4CCN(C(CO)c5cc(F)cc(OC)c5)C[C@H]4C)cnn3c(C(F)(F)F)c2C)cc1` (stereo partly drawn) [methanone, [(2R)-4-[1-(3-fluoro-5-methoxyphenyl)-2-hydroxyethyl]-2-methyl-1-piperazinyl][5-(4-methoxyphenyl)-6-methyl-7-(trifluoromethyl)pyrazolo[1,5-α]pyrimidin-3-yl]-], the IC50 with HIV-1, NL4-3 strain was less than 1 µM; in test [1], less than 1 µM.

As to `COc1ccc(-c2nc3c(C(=O)N4CCN(C(CO)c5cccc(F)c5)C[C@H]4C)cnn3c(C(F)(F)F)c2C)cc1` (stereo partly drawn) [methanone, [(2R)-4-[1-(3-fluorophenyl)-2-hydroxyethyl]-2-methyl-1-piperazinyl][5-(4-methoxyphenyl)-6-methyl-7-(trifluoromethyl)pyrazolo[1,5-α]pyrimidin-3-yl]-], the IC50 in the test with HIV-1, NL4-3 strain was less than 1 µM; in test [1] it was less than 1 µM.

With `COc1ccc(-c2nc3c(C(=O)N4CCN(C(CO)c5ccoc5)C[C@H]4C)cnn3c(C(F)(F)F)c2C)cc1` (stereo partly drawn) [methanone, [(2R)-4-[1-(3-furanyl)-2-hydroxyethyl]-2-methyl-1-piperazinyl][5-(4-methoxyphenyl)-6-methyl-7-(trifluoromethyl)pyrazolo[1,5-α]pyrimidin-3-yl]-], the IC50 with HIV-1, NL4-3 strain was less than 1 µM; in test [1], less than 1 µM.

Regarding `COc1ccc(-c2nc3c(C(=O)N4CCN(C(CO)c5ccc(F)cc5OC)C[C@H]4C)cnn3c(C(F)(F)F)c2C)cc1` (stereo partly drawn) [methanone, [(2R)-4-[1-(4-fluoro-2-methoxyphenyl)-2-hydroxyethyl]-2-methyl-1-piperazinyl][5-(4-methoxyphenyl)-6-methyl-7-(trifluoromethyl)pyrazolo[1,5-α]pyrimidin-3-yl]-], the IC50 with HIV-1, NL4-3 strain is less than 1 µM; in test [1], less than 1 µM.

As to `COc1ccc(-c2nc3c(C(=O)N4CCN(C(CO)c5ccc(F)cc5)C[C@H]4C)cnn3c(C(F)(F)F)c2C)cc1` (stereo partly drawn) [methanone, [(2R)-4-[1-(4-fluorophenyl)-2-hydroxyethyl]-2-methyl-1-piperazinyl][5-(4-methoxyphenyl)-6-methyl-7-(trifluoromethyl)pyrazolo[1,5-α]pyrimidin-3-yl]-], the IC50 was less than 1 µM in the test with HIV-1, NL4-3 strain and less than 1 µM in test [1].

As to `COc1ccc(-c2nc3c(C(=O)N4CCN(C(CO)c5ccc(Cl)s5)C[C@H]4C)cnn3c(C(F)(F)F)c2C)cc1` (stereo partly drawn) [methanone, [(2R)-4-[1-(5-chloro-2-thienyl)-2-hydroxyethyl]-2-methyl-1-piperazinyl][5-(4-methoxyphenyl)-6-methyl-7-(trifluoromethyl)pyrazolo[1,5-α]pyrimidin-3-yl]-], the IC50 with HIV-1, NL4-3 strain is less than 1 µM; in test [1], less than 1 µM.

Regarding `COc1ccc(-c2nc3c(C(=O)N4CCN(C(CO)c5cc(F)ccc5OC)C[C@H]4C)cnn3c(C(F)(F)F)c2C)cc1` (stereo partly drawn) [methanone, [(2R)-4-[1-(5-fluoro-2-methoxyphenyl)-2-hydroxyethyl]-2-methyl-1-piperazinyl][5-(4-methoxyphenyl)-6-methyl-7-(trifluoromethyl)pyrazolo[1,5-α]pyrimidin-3-yl]-], the IC50 in the test on HIV-1, NL4-3 strain is less than 1 µM; in test [1], less than 1 µM.

Consider `COc1ccc(-c2nc3c(C(=O)N4CCN(C(CO)c5ccc(Br)nc5)C[C@H]4C)cnn3c(C(F)(F)F)c2C)cc1` (stereo partly drawn) [methanone, [(2R)-4-[1-(6-bromo-3-pyridinyl)-2-hydroxyethyl]-2-methyl-1-piperazinyl][5-(4-methoxyphenyl)-6-methyl-7-(trifluoromethyl)pyrazolo[1,5-α]pyrimidin-3-yl]-], for which the IC50 in the test on HIV-1, NL4-3 strain was less than 1 µM; in test [1], less than 1 µM.

Take `CCOc1ccc(C(CO)N2CCN(C(=O)c3cnn4c(C(F)(F)F)c(C)c(-c5ccc(OC)cc5)nc34)[C@H](C)C2)cn1` (stereo partly drawn) [methanone, [(2R)-4-[1-(6-ethoxy-3-pyridinyl)-2-hydroxyethyl]-2-methyl-1-piperazinyl][5-(4-methoxyphenyl)-6-methyl-7-(trifluoromethyl)pyrazolo[1,5-α]pyrimidin-3-yl]-]: the IC50 in the test with HIV-1, NL4-3 strain was less than 1 µM; in test [1], less than 1 µM.

For `COc1ccc(-c2nc3c(C(=O)N4CCN(C(CO)c5cccc(CN)c5)C[C@H]4C)cnn3c(C(F)(F)F)c2C)cc1` (stereo partly drawn) [methanone, [(2R)-4-[1-[3-(aminomethyl)phenyl]-2-hydroxyethyl]-2-methyl-1-piperazinyl][5-(4-methoxyphenyl)-6-methyl-7-(trifluoromethyl)pyrazolo[1,5-α]pyrimidin-3-yl]-], the IC50 with HIV-1, NL4-3 strain is more than 10.1 µM; in test [1] it was more than 10.1 µM.

Take `COc1ccc(-c2nc3c(C(=O)N4CCN(C(CO)c5cccc(N(C)C)c5)C[C@H]4C)cnn3c(C(F)(F)F)c2C)cc1` (stereo partly drawn) [methanone, [(2R)-4-[1-[3-(dimethylamino)phenyl]-2-hydroxyethyl]-2-methyl-1-piperazinyl][5-(4-methoxyphenyl)-6-methyl-7-(trifluoromethyl)pyrazolo[1,5-α]pyrimidin-3-yl]-]: the IC50 in the test with HIV-1, NL4-3 strain was less than 1 µM; in test [1] it was less than 1 µM.

In the case of `COc1ccc(-c2nc3c(C(=O)N4CCN(C(CN(C)C)c5ccccc5)C[C@H]4C)cnn3c(C(F)(F)F)c2C)cc1` (stereo partly drawn) [methanone, [(2R)-4-[2-(dimethylamino)-1-phenylethyl]-2-methyl-1-piperazinyl][5-(4-methoxyphenyl)-6-methyl-7-(trifluoromethyl)pyrazolo[1,5-α]pyrimidin-3-yl]-], the IC50 with HIV-1, NL4-3 strain was less than 1 µM; in test [1] it was less than 1 µM.

As for `COc1ccc(-c2nc3c(C(=O)N4CCN(C(CO)c5cn[nH]c5)C[C@H]4C)cnn3c(C(F)(F)F)c2C)cc1` (stereo partly drawn) [methanone, [(2R)-4-[2-hydroxy-1-(1H-pyrazol-4-yl)ethyl]-2-methyl-1-piperazinyl][5-(4-methoxyphenyl)-6-methyl-7-(trifluoromethyl)pyrazolo[1,5-α]pyrimidin-3-yl]-], the IC50 in the test on HIV-1, NL4-3 strain lay in the range of 1.1 to 10 µM; in test [1] it was 1.1 to 10 µM.

As for `COc1ccc(-c2nc3c(C(=O)N4CCN(C(CO)c5cc(F)cc(F)c5F)C[C@H]4C)cnn3c(C(F)(F)F)c2C)cc1` (stereo partly drawn) [methanone, [(2R)-4-[2-hydroxy-1-(2,3,5-trifluorophenyl)ethyl]-2-methyl-1-piperazinyl][5-(4-methoxyphenyl)-6-methyl-7-(trifluoromethyl)pyrazolo[1,5-α]pyrimidin-3-yl]-], the IC50 with HIV-1, NL4-3 strain is less than 1 µM; in test [1] it was less than 1 µM.

As for `COc1ccc(-c2nc3c(C(=O)N4CCN(C(CO)c5c(F)ccc(F)c5F)C[C@H]4C)cnn3c(C(F)(F)F)c2C)cc1` (stereo partly drawn) [methanone, [(2R)-4-[2-hydroxy-1-(2,3,6-trifluorophenyl)ethyl]-2-methyl-1-piperazinyl][5-(4-methoxyphenyl)-6-methyl-7-(trifluoromethyl)pyrazolo[1,5-α]pyrimidin-3-yl]-], the IC50 with HIV-1, NL4-3 strain was less than 1 µM; in test [1], less than 1 µM.

On to `COc1ccc(-c2nc3c(C(=O)N4CCN(C(CO)c5cccnc5OC)C[C@H]4C)cnn3c(C(F)(F)F)c2C)cc1` (stereo partly drawn) [methanone, [(2R)-4-[2-hydroxy-1-(2-methoxy-3-pyridinyl)ethyl]-2-methyl-1-piperazinyl][5-(4-methoxyphenyl)-6-methyl-7-(trifluoromethyl)pyrazolo[1,5-α]pyrimidin-3-yl]-], for which the IC50 with HIV-1, NL4-3 strain is less than 1 µM; in test [1] it was less than 1 µM.

On to `COc1ccc(-c2nc3c(C(=O)N4CCN(C(CO)c5cnc(OC)nc5)C[C@H]4C)cnn3c(C(F)(F)F)c2C)cc1` (stereo partly drawn) [methanone, [(2R)-4-[2-hydroxy-1-(2-methoxy-5-pyrimidinyl)ethyl]-2-methyl-1-piperazinyl][5-(4-methoxyphenyl)-6-methyl-7-(trifluoromethyl)pyrazolo[1,5-α]pyrimidin-3-yl]-], for which the IC50 in the test with HIV-1, NL4-3 strain is less than 1 µM; in test [1] it was less than 1 µM.

As to `COc1ccc(-c2nc3c(C(=O)N4CCN(C(CO)c5ccccc5OC)C[C@H]4C)cnn3c(C(F)(F)F)c2C)cc1` (stereo partly drawn) [methanone, [(2R)-4-[2-hydroxy-1-(2-methoxyphenyl)ethyl]-2-methyl-1-piperazinyl][5-(4-methoxyphenyl)-6-methyl-7-(trifluoromethyl)pyrazolo[1,5-α]pyrimidin-3-yl]-], the IC50 in the test on HIV-1, NL4-3 strain was less than 1 µM; in test [1], less than 1 µM.

In the case of `COc1ccc(-c2nc3c(C(=O)N4CCN(C(CO)c5cccs5)C[C@H]4C)cnn3c(C(F)(F)F)c2C)cc1` (stereo partly drawn) [methanone, [(2R)-4-[2-hydroxy-1-(2-thienyl)ethyl]-2-methyl-1-piperazinyl][5-(4-methoxyphenyl)-6-methyl-7-(trifluoromethyl)pyrazolo[1,5-α]pyrimidin-3-yl]-], the IC50 with HIV-1, NL4-3 strain was less than 1 µM; in test [1], less than 1 µM.

Turning to `COc1ccc(-c2nc3c(C(=O)N4CCN(C(CO)c5cccc(OC)c5)C[C@H]4C)cnn3c(C(F)(F)F)c2C)cc1` (stereo partly drawn) [methanone, [(2R)-4-[2-hydroxy-1-(3-methoxyphenyl)ethyl]-2-methyl-1-piperazinyl][5-(4-methoxyphenyl)-6-methyl-7-(trifluoromethyl)pyrazolo[1,5-α]pyrimidin-3-yl]-], the IC50 in the test on HIV-1, NL4-3 strain was less than 1 µM; in test [1], less than 1 µM.
